{
  "source": "patent US20240041050A1",
  "about": "“CELL PENETRATING PEPTIDE MEDIATED RNA TRANSDUCTION WITHIN INSECT CELLS” (PIONEER HI-BRED INTERNATIONAL, INC., priority 2020, published 2024)",
  "key": {"[1]": {"system": "western corn rootworm (WCR) larvae", "test": "Oral toxicity screening of CPPs in artificial diet", "type": "in vivo", "settings": "first instar WCR larvae; for Affected (%): mortality and stunting", "protocol": "Briefly, CPPs were incorporated into standard WCR artificial diet in 96-well microtiter plate format. A 25 μL aliquot of dosing solution was combined with 75 μL molten low-melt WCR diet and shaken on an orbital shaker to mix. Once diet solidified, preconditioned first instar WCR (freshly-hatched insects placed on neutral diet for 24 hours prior to transfer to test diet) were added to the diet plates at a rate of 1 insect·well^−1. Plates were placed inside an incubator (Percival Scientific, Inc., Perry, IA) set to 27° C., 65% RH, and a 24-hour dark cycle. The assay was scored for mortality and stunting affects after 7 and 12 days, without diet refresh, on a 0-3 scale, where 3=mortality, 2=severe stunting, 1=stunting, 0=no affect when compared with untreated larvae. The assay was repeated three times and end-results were tabulated using all three replicates and converted to percentages (Table 5)."}, "Sf9 cells": {"system": "Sf9 cells", "test": "CPP-mediated delivery of mCherry mRNA cargo into insect cells", "type": "cell-based, Spodoptera frugiperda", "settings": "complex of 75 μM unlabeled CPP and 10 μg mCherry mRNA, overnight", "source_text": "(§1) Sample preparation and analysis methods were based on those previously reported (Jafari et al. (201 4) “Serum stability and physicochemical characterization of a novel amphipathic peptide C6M 1 for siRNA delivery”, PLoS One, 9(5), e97797; and Gillet et al. (2017) “Investigating Engineered Ribonucleoprotein Particles to Improve Oral RNAi Delivery in Crop Insect Pests”, Frontiers in Physiology, 8(256), doi: 10.3389/fphys.2017.00256). Reagents are described in Examples 1 and 2. Nanocomplex samples were prepared in one of several ways, depending on type of CPP, RNA, or assay. […] Reaction volumes added to cells were 6.38 μL CPP and 6.38 μL mRNA. Final optimal CPP concentration was assessed by amount of fluorescent signal apparent within cells. For insect cell-based assays with CPP-YFP·Cy3-dsRNA or CPP·dsRNA, first a complex formation solution was prepared in molecular biology-grade water containing 90 mg·mL^−1 maltose, 9 mg·mL^−1 mannitol, 392. 16 mM CaCI2, pH 7.0, and vacuum-filtered using Corning™ Disposable Vacuum Filter and Storage System containing a cellulose nitrate filter. Then, increasing amounts of CPP-YFP were added to Cy3-dsRNA, from a molar ratio (CPP-YFP:Cy3-dsRNA) of 1:4 through 8:1 and incubated protected from light at 25° C. for 90 minutes prior to assessment via gel shift and DLS. Reaction volumes added per cell well were comprised of 17 μL reaction solution, 1 μL CPP, 1 μL dsRNA, and 1 μL molecular biology grade water; reaction sizes for larger total volumes were increased in increments of 20 μL and component ratio was held constant to maintain an ionic strength of […]. Final optimal molar ratio selected for cell experiments were determined by increase of the apparent size of the Cy3-dsRNA band on a native agarose gel (FIG. 2A and FIG. 2B), and/or appearance and increase in size of the complex peak detected by a Zetasizer Ultra (Malvern Panalytical, Malvern, United Kingdom) DLS instrument (FIG. 2C). […] Final optimal BAPC1 concentration was assessed by amount of fluorescent signal apparent within cells. […]"}, "DvWL2 cells": {"system": "DvWL2 cells", "test": "CPP-mediated delivery of mCherry mRNA cargo into insect cells", "type": "cell-based, Diabrotica virgifera virgifera", "settings": "complex of 75 μM unlabeled CPP and 10 μg mCherry mRNA, overnight", "source_text": "as §1"}, "DU182A cells": {"system": "DU182A cells", "test": "CPP-mediated delivery of mCherry mRNA cargo into insect cells", "type": "cell-based, Diabrotica undecimpunctata", "settings": "complex of 75 μM unlabeled CPP and 10 μg mCherry mRNA, overnight", "source_text": "as §1"}},
  "note": "Ends that are not written are not given here.",
  "data": [
    {"compound": "CSCC[C@H](NC(=O)[C@@H](NC(=O)[C@H](CO)NC(=O)CNC(=O)[C@H](C)NC(=O)[C@H](C)NC(=O)CNC(=O)[C@H](CC(C)C)NC(=O)[C@H](Cc1ccccc1)NC(=O)CNC(=O)[C@H](CC(C)C)NC(=O)[C@H](Cc1ccccc1)NC(=O)[C@H](CC(C)C)NC(=O)[C@H](C)NC(=O)CN)[C@@H](C)O)C(=O)NCC(=O)N[C@@H](C)C(=O)N[C@@H](Cc1c[nH]c2ccccc12)C(=O)N[C@@H](CO)C(=O)N[C@@H](CCC(N)=O)C(=O)N1CCC[C@H]1C(=O)N[C@@H](CCCCN)C(=O)N[C@@H](CO)C(=O)N[C@@H](CCCCN)C(=O)N[C@@H](CCCNC(=N)N)C(=O)N[C@@H](CCCCN)C(=O)N[C@H](C(=O)O)C(C)C", "note": "[MPG]", "values": [
      {"measurement": "Affected (%)", "setting": "[1]; 0.195 ppm in artificial diet", "result": 0, "unit": "%"},
      {"measurement": "Affected (%)", "setting": "[1]; 0.391 ppm in artificial diet", "result": 0, "unit": "%"},
      {"measurement": "Affected (%)", "setting": "[1]; 0.781 ppm in artificial diet", "result": 0, "unit": "%"},
      {"measurement": "Affected (%)", "setting": "[1]; 1.56 ppm in artificial diet", "result": 0, "unit": "%"},
      {"measurement": "Affected (%)", "setting": "[1]; 3.13 ppm in artificial diet", "result": 0, "unit": "%"},
      {"measurement": "Affected (%)", "setting": "[1]; 6.25 ppm in artificial diet", "result": 0, "unit": "%"},
      {"measurement": "Affected (%)", "setting": "[1]; 12.5 ppm in artificial diet", "result": 0, "unit": "%"},
      {"measurement": "Affected (%)", "setting": "[1]; 25.0 ppm in artificial diet", "result": 0, "unit": "%"},
      {"measurement": "Affected (%)", "setting": "[1]; 50.0 ppm in artificial diet", "result": 0, "unit": "%"},
      {"measurement": "Affected (%)", "setting": "[1]; 100 ppm in artificial diet", "result": 0, "unit": "%"},
      {"measurement": "Affected (%)", "setting": "[1]; 200 ppm in artificial diet", "result": 0, "unit": "%"},
      {"measurement": "fluorescent protein translated from delivered mCherry mRNA (fluorescent signal inside cells)", "setting": "Sf9 cells", "result": "Translation of mRNA into a functional fluorescent protein occurred"},
      {"measurement": "fluorescent protein translated from delivered mCherry mRNA (fluorescent signal inside cells)", "setting": "DvWL2 cells", "result": "Translation of mRNA into a functional fluorescent protein occurred"},
      {"measurement": "fluorescent protein translated from delivered mCherry mRNA (fluorescent signal inside cells)", "setting": "DU182A cells", "result": "Translation of mRNA into a functional fluorescent protein occurred"}
    ]},
    {"compound": "KQINNWFINQRKRHWK [Knotted-1, KQINNWFINQRKRHWK]", "values": [
      {"measurement": "Mortality (%)", "setting": "[1]; 0.195 ppm in artificial diet", "result": 0, "unit": "%"},
      {"measurement": "Affected (%)", "setting": "[1]; 0.195 ppm in artificial diet", "result": 0, "unit": "%"},
      {"measurement": "Mortality (%)", "setting": "[1]; 0.391 ppm in artificial diet", "result": 0, "unit": "%"},
      {"measurement": "Affected (%)", "setting": "[1]; 0.391 ppm in artificial diet", "result": 0, "unit": "%"},
      {"measurement": "Mortality (%)", "setting": "[1]; 0.781 ppm in artificial diet", "result": 0, "unit": "%"},
      {"measurement": "Affected (%)", "setting": "[1]; 0.781 ppm in artificial diet", "result": 0, "unit": "%"},
      {"measurement": "Mortality (%)", "setting": "[1]; 1.56 ppm in artificial diet", "result": 0, "unit": "%"},
      {"measurement": "Affected (%)", "setting": "[1]; 1.56 ppm in artificial diet", "result": 0, "unit": "%"},
      {"measurement": "Mortality (%)", "setting": "[1]; 3.13 ppm in artificial diet", "result": 0, "unit": "%"},
      {"measurement": "Affected (%)", "setting": "[1]; 3.13 ppm in artificial diet", "result": 0, "unit": "%"},
      {"measurement": "Mortality (%)", "setting": "[1]; 6.25 ppm in artificial diet", "result": 0, "unit": "%"},
      {"measurement": "Affected (%)", "setting": "[1]; 6.25 ppm in artificial diet", "result": 0, "unit": "%"},
      {"measurement": "Mortality (%)", "setting": "[1]; 12.5 ppm in artificial diet", "result": 0, "unit": "%"},
      {"measurement": "Affected (%)", "setting": "[1]; 12.5 ppm in artificial diet", "result": 0, "unit": "%"},
      {"measurement": "Mortality (%)", "setting": "[1]; 25.0 ppm in artificial diet", "result": 0, "unit": "%"},
      {"measurement": "Affected (%)", "setting": "[1]; 25.0 ppm in artificial diet", "result": 0, "unit": "%"},
      {"measurement": "Mortality (%)", "setting": "[1]; 50.0 ppm in artificial diet", "result": 0, "unit": "%"},
      {"measurement": "Affected (%)", "setting": "[1]; 50.0 ppm in artificial diet", "result": 0, "unit": "%"},
      {"measurement": "Mortality (%)", "setting": "[1]; 100 ppm in artificial diet", "result": 0, "unit": "%"},
      {"measurement": "Affected (%)", "setting": "[1]; 100 ppm in artificial diet", "result": 0, "unit": "%"},
      {"measurement": "Mortality (%)", "setting": "[1]; 200 ppm in artificial diet", "result": 0, "unit": "%"},
      {"measurement": "Affected (%)", "setting": "[1]; 200 ppm in artificial diet", "result": 0, "unit": "%"},
      {"measurement": "fluorescent protein translated from delivered mCherry mRNA (fluorescent signal inside cells)", "setting": "Sf9 cells", "result": "Translation of mRNA into a functional fluorescent protein occurred"},
      {"measurement": "fluorescent protein translated from delivered mCherry mRNA (fluorescent signal inside cells)", "setting": "DvWL2 cells", "result": "Translation of mRNA into a functional fluorescent protein occurred"},
      {"measurement": "fluorescent protein translated from delivered mCherry mRNA (fluorescent signal inside cells)", "setting": "DU182A cells", "result": "Translation of mRNA into a functional fluorescent protein occurred"}
    ]},
    {"compound": "VRLPPPVRLPPPLVRPPPL [VRLPPPVRLPPPLVRPPPL]", "values": [
      {"measurement": "Mortality (%)", "setting": "[1]; 0.195 ppm in artificial diet", "result": 0, "unit": "%"},
      {"measurement": "Affected (%)", "setting": "[1]; 0.195 ppm in artificial diet", "result": 0, "unit": "%"},
      {"measurement": "Mortality (%)", "setting": "[1]; 0.391 ppm in artificial diet", "result": 0, "unit": "%"},
      {"measurement": "Affected (%)", "setting": "[1]; 0.391 ppm in artificial diet", "result": 0, "unit": "%"},
      {"measurement": "Mortality (%)", "setting": "[1]; 0.781 ppm in artificial diet", "result": 0, "unit": "%"},
      {"measurement": "Affected (%)", "setting": "[1]; 0.781 ppm in artificial diet", "result": 0, "unit": "%"},
      {"measurement": "Mortality (%)", "setting": "[1]; 1.56 ppm in artificial diet", "result": 0, "unit": "%"},
      {"measurement": "Affected (%)", "setting": "[1]; 1.56 ppm in artificial diet", "result": 0, "unit": "%"},
      {"measurement": "Mortality (%)", "setting": "[1]; 3.13 ppm in artificial diet", "result": 0, "unit": "%"},
      {"measurement": "Affected (%)", "setting": "[1]; 3.13 ppm in artificial diet", "result": 0, "unit": "%"},
      {"measurement": "Mortality (%)", "setting": "[1]; 6.25 ppm in artificial diet", "result": 0, "unit": "%"},
      {"measurement": "Affected (%)", "setting": "[1]; 6.25 ppm in artificial diet", "result": 0, "unit": "%"},
      {"measurement": "Mortality (%)", "setting": "[1]; 12.5 ppm in artificial diet", "result": 0, "unit": "%"},
      {"measurement": "Affected (%)", "setting": "[1]; 12.5 ppm in artificial diet", "result": 0, "unit": "%"},
      {"measurement": "Mortality (%)", "setting": "[1]; 25.0 ppm in artificial diet", "result": 0, "unit": "%"},
      {"measurement": "Affected (%)", "setting": "[1]; 25.0 ppm in artificial diet", "result": 0, "unit": "%"},
      {"measurement": "Mortality (%)", "setting": "[1]; 50.0 ppm in artificial diet", "result": 0, "unit": "%"},
      {"measurement": "Affected (%)", "setting": "[1]; 50.0 ppm in artificial diet", "result": 0, "unit": "%"},
      {"measurement": "Mortality (%)", "setting": "[1]; 100 ppm in artificial diet", "result": 0, "unit": "%"},
      {"measurement": "Affected (%)", "setting": "[1]; 100 ppm in artificial diet", "result": 0, "unit": "%"},
      {"measurement": "Mortality (%)", "setting": "[1]; 200 ppm in artificial diet", "result": 0, "unit": "%"},
      {"measurement": "Affected (%)", "setting": "[1]; 200 ppm in artificial diet", "result": 0, "unit": "%"}
    ]}
  ]
}
